# In article PMC8330742, “New benzothieno[2,3-c]pyridines as non-steroidal CYP17 inhibitors: design, synthesis, anticancer screening, apoptosis induction, and in silico ADME profile studies” (Journal of Enzyme Inhibition and Medicinal Chemistry, 2021):
# Tests used:
# [1] = system: UACC-62; experiment: NCI-60 SRB screen; format: cell-based, human; details: Homo sapiens; UACC-62; single dose 10^−5 M; read-out: Growth inhibition (%)
# [2] = system: RXF 393; experiment: NCI-60 SRB screen; format: cell-based, human; details: Homo sapiens; RXF 393; single dose 10^−5 M; read-out: Growth inhibition (%)
# [3] = system: HT-29; experiment: NCI-60 SRB screen; format: cell-based; details: Homo sapiens; HT-29; single dose 10^−5 M; read-out: Growth inhibition (%)
# [4] = system: HCC-2998; experiment: NCI-60 SRB screen; format: cell-based, human; details: Homo sapiens; HCC-2998; single dose 10^−5 M; read-out: Growth inhibition (%)
# [5] = system: COLO 205; experiment: NCI-60 SRB screen; format: cell-based, human; details: Homo sapiens; COLO 205; single dose 10^−5 M; read-out: Growth inhibition (%)
# [6] = system: LOX IMVI; experiment: NCI-60 SRB screen; format: cell-based, human; details: Homo sapiens, single dose 10^−5 M, read-out: Growth inhibition (%)
# [7] = system: NCI-H522; experiment: NCI-60 SRB screen; format: cell-based, human; details: Homo sapiens; NCI-H522; single dose 10^−5 M; read-out: Growth inhibition (%)
# [8] = system: SW-620; experiment: NCI-60 SRB screen; format: cell-based; details: Homo sapiens; SW-620; single dose 10^−5 M; read-out: Growth inhibition (%)
# [9] = system: EKVX; experiment: NCI-60 SRB screen; format: cell-based, human; details: Homo sapiens, single dose 10^−5 M, read-out: Growth inhibition (%)
# [10] = system: ACHN; experiment: NCI-60 SRB screen; format: cell-based; details: Homo sapiens, single dose 10^−5 M, read-out: Growth inhibition (%)
# [11] = system: A549/ATCC; experiment: NCI-60 SRB screen; format: cell-based, human; details: Homo sapiens, single dose 10^−5 M, read-out: Growth inhibition (%)
# [12] = system: SF-268; experiment: NCI-60 SRB screen; format: cell-based, human; details: Homo sapiens; SF-268; single dose 10^−5 M; read-out: Growth inhibition (%)
# [13] = system: MALME-3M; experiment: NCI-60 SRB screen; format: cell-based, human; details: Homo sapiens, single dose 10^−5 M, read-out: Growth inhibition (%)
# [14] = system: CCRF-CEM; experiment: NCI-60 SRB screen; format: cell-based; details: Homo sapiens, single dose 10^−5 M, read-out: Growth inhibition (%)
# [15] = system: SK-MEL-28; experiment: NCI-60 SRB screen; format: cell-based; details: Homo sapiens; SK-MEL-28; single dose 10^−5 M; read-out: Growth inhibition (%)
# [16] = system: UACC-257; experiment: NCI-60 SRB screen; format: cell-based, human; details: Homo sapiens, UACC-257; UACC-275 (so in the source); single dose 10^−5 M; read-out: Growth inhibition (%)
# [17] = system: IGROV1; experiment: NCI-60 SRB screen; format: cell-based, human; details: Homo sapiens, IGROV-1; IGROV1; single dose 10^−5 M; read-out: Growth inhibition (%)
# [18] = system: TK-10; experiment: NCI-60 SRB screen; format: cell-based, human; details: Homo sapiens; TK-10; single dose 10^−5 M; read-out: Growth inhibition (%)
# [19] = system: NCI/ADR-RES; experiment: NCI-60 SRB screen; format: cell-based, human; details: Homo sapiens, single dose 10^−5 M, read-out: Growth inhibition (%)
# [20] = system: HCT-116; experiment: NCI-60 SRB screen; format: cell-based, human; details: Homo sapiens; HCT-116; single dose 10^−5 M; read-out: Growth inhibition (%)
# [21] = system: NCI-H322M; experiment: NCI-60 SRB screen; format: cell-based, human; details: Homo sapiens, single dose 10^−5 M, read-out: Growth inhibition (%)
# [22] = system: SF-295; experiment: NCI-60 SRB screen; format: cell-based, human; details: Homo sapiens; SF-295; single dose 10^−5 M; read-out: Growth inhibition (%)
# [23] = system: HOP-62; experiment: NCI-60 SRB screen; format: cell-based, human; details: Homo sapiens; HOP-62; single dose 10^−5 M; read-out: Growth inhibition (%)
# [24] = system: M14; experiment: NCI-60 SRB screen; format: cell-based, human; details: Homo sapiens; M14; single dose 10^−5 M; read-out: Growth inhibition (%)
# [25] = system: OVCAR-8; experiment: NCI-60 SRB screen; format: cell-based, human; details: Homo sapiens; OVCAR-8; single dose 10^−5 M; read-out: Growth inhibition (%)
# [26] = system: OVCAR-3; experiment: NCI-60 SRB screen; format: cell-based, human; details: Homo sapiens; OVCAR-3; single dose 10^−5 M; read-out: Growth inhibition (%)
# [27] = system: NCI-H460; experiment: NCI-60 SRB screen; format: cell-based, human; details: Homo sapiens; NCI-H460; single dose 10^−5 M; read-out: Growth inhibition (%)
# [28] = system: OVCAR-4; experiment: NCI-60 SRB screen; format: cell-based, human; details: Homo sapiens; OVCAR-4; single dose 10^−5 M; read-out: Growth inhibition (%)
# [29] = system: CAKI-1; experiment: NCI-60 SRB screen; format: cell-based, human; details: Homo sapiens; CAKI-1; single dose 10^−5 M; read-out: Growth inhibition (%)
# [30] = system: HCT-15; experiment: NCI-60 SRB screen; format: cell-based, human; details: Homo sapiens; HCT-15; single dose 10^−5 M; read-out: Growth inhibition (%)
# [31] = system: SK-MEL-5; experiment: NCI-60 SRB screen; format: cell-based, human; details: Homo sapiens; SK-MEL-5; single dose 10^−5 M; read-out: Growth inhibition (%)
# [32] = system: 786-0; experiment: NCI-60 SRB screen; format: cell-based; details: Homo sapiens; 786-0; single dose 10^−5 M; read-out: Growth inhibition (%)
# [33] = system: HL-60(TB); experiment: NCI-60 SRB screen; format: cell-based, human; details: Homo sapiens; HL-60 (TB); single dose 10^−5 M; read-out: Growth inhibition (%)
# [34] = system: MOLT-4; experiment: NCI-60 SRB screen; format: cell-based; details: Homo sapiens; MOLT-4; single dose 10^−5 M; read-out: Growth inhibition (%)
# [35] = system: UO-31; experiment: NCI-60 SRB screen; format: cell-based, human; details: Homo sapiens; UO-31; single dose 10^−5 M; read-out: Growth inhibition (%)
# [36] = system: NCI-H23; experiment: NCI-60 SRB screen; format: cell-based, human; details: Homo sapiens; NCI-H23; single dose 10^−5 M; read-out: Growth inhibition (%)
# [37] = system: SN12C; experiment: NCI-60 SRB screen; format: cell-based, human; details: Homo sapiens, SN12C; SN 12 C; single dose 10^−5 M; read-out: Growth inhibition (%)
# [38] = system: SK-OV-3; experiment: NCI-60 SRB screen; format: cell-based, human; details: Homo sapiens; SK-OV-3; single dose 10^−5 M; read-out: Growth inhibition (%)
# [39] = system: NCI-H226; experiment: NCI-60 SRB screen; format: cell-based, human; details: Homo sapiens; NCI-H226; single dose 10^−5 M; read-out: Growth inhibition (%)
# [40] = system: HOP-92; experiment: NCI-60 SRB screen; format: cell-based, human; details: Homo sapiens; HOP-92; single dose 10^−5 M; read-out: Growth inhibition (%)
# [41] = system: K-562; experiment: NCI-60 SRB screen; format: cell-based, human; details: Homo sapiens, K562; K-562; single dose 10^−5 M; read-out: Growth inhibition (%)
# [42] = system: SK-MEL-2; experiment: NCI-60 SRB screen; format: cell-based, human; details: Homo sapiens; SK-MEL-2; single dose 10^−5 M; read-out: Growth inhibition (%)
# [43] = system: KM12; experiment: NCI-60 SRB screen; format: cell-based, human; details: Homo sapiens; KM12; single dose 10^−5 M; read-out: Growth inhibition (%)
# [44] = system: panel of 60 cancer cell lines; experiment: NCI-60 SRB screen, mean or range over the panel; format: cell-based, human; details: Homo sapiens; mean over the cell lines; single dose 10^−5 M; read-out: Mean growth inhibition (%)
compound,measurement,setting,value
"COc1ccc(C2NC(=O)C(C#N)c3c2sc2c(F)cccc32)cc1 (centres unmarked) [Compound 5b, 4-Cyano-8-fluoro-1-(4-methoxyphenyl)-1,2-dihydro[1]benzothieno[2,3-c] pyridin-3(4H)-one]",inhibition at 10 µM,[1],64.7%
same,inhibition at 10 µM,[2],44.1%
same,inhibition at 10 µM,[3],49.5%
same,inhibition at 10 µM,[4],8.46%
same,inhibition at 10 µM,[5],8.44%
same,inhibition at 10 µM,[6],54.4%
same,inhibition at 10 µM,[7],79.9%
same,inhibition at 10 µM,[8],75.7%
same,inhibition at 10 µM,[9],38.3%
same,inhibition at 10 µM,[10],55.5%
same,inhibition at 10 µM,[11],58.5%
same,inhibition at 10 µM,[12],39%
same,inhibition at 10 µM,[13],52.9%
same,inhibition at 10 µM,[14],66%
same,inhibition at 10 µM,[15],47.4%
same,inhibition at 10 µM,[16],36.1%
same,inhibition at 10 µM,[17],58.9%
same,inhibition at 10 µM,[18],-12.7%
same,inhibition at 10 µM,[19],70.7%
same,inhibition at 10 µM,[20],62.5%
same,inhibition at 10 µM,[21],34.8%
same,inhibition at 10 µM,[22],69.5%
same,inhibition at 10 µM,[23],54.6%
same,inhibition at 10 µM,[24],66.7%
same,inhibition at 10 µM,[25],30.2%
same,inhibition at 10 µM,[26],99.4%
same,inhibition at 10 µM,[27],71.4%
same,inhibition at 10 µM,[28],28.4%
same,inhibition at 10 µM,[29],60%
same,inhibition at 10 µM,[30],66.5%
same,inhibition at 10 µM,[31],39.5%
same,inhibition at 10 µM,[32],29.1%
same,inhibition at 10 µM,[33],89.5%
same,inhibition at 10 µM,[34],50.9%
same,inhibition at 10 µM,[35],64.2%
same,inhibition at 10 µM,[36],24.8%
same,inhibition at 10 µM,[37],38.6%
same,inhibition at 10 µM,[38],36.9%
same,inhibition at 10 µM,[39],39.8%
same,inhibition at 10 µM,[40],45.9%
same,inhibition at 10 µM,[41],86%
same,inhibition at 10 µM,[42],40%
same,inhibition at 10 µM,[43],60%
same,inhibition at 10 µM,[44],52.5%
